Measured values published in patent publication US20240209028A1, “CNP COMPOUNDS” (priority 2022, published 2024).
Starred links: 1 amine or outer side, 2 acyl side, 3 side chain; linkers in the order of their positions; H or OH if unused. Positions of bridges follow the written chain, without caps; N, C: chain ends. Residues, ends and D or L forms follow the SMILES beside them. *: point of attachment. C18 diacid = O=C(O)CCCCCCCCCCCCCCCCC(=O)*; γGlu = O=C(O)[C@H](CCC(=O)[*:2])N[*:1]; AEEA = NCCOCCOCC(=O)O

Molecular target: T1, human natriuretic peptide receptor 2 (hNPR2) (Homo sapiens, UniProt P20594)
T1 construct: expressed in transfected cells; host or cells: HEK293 (ATCC CRL-1573), clone 35, co-transfected with pGloSensor-42F
T1 sequence (P20594 23-1047): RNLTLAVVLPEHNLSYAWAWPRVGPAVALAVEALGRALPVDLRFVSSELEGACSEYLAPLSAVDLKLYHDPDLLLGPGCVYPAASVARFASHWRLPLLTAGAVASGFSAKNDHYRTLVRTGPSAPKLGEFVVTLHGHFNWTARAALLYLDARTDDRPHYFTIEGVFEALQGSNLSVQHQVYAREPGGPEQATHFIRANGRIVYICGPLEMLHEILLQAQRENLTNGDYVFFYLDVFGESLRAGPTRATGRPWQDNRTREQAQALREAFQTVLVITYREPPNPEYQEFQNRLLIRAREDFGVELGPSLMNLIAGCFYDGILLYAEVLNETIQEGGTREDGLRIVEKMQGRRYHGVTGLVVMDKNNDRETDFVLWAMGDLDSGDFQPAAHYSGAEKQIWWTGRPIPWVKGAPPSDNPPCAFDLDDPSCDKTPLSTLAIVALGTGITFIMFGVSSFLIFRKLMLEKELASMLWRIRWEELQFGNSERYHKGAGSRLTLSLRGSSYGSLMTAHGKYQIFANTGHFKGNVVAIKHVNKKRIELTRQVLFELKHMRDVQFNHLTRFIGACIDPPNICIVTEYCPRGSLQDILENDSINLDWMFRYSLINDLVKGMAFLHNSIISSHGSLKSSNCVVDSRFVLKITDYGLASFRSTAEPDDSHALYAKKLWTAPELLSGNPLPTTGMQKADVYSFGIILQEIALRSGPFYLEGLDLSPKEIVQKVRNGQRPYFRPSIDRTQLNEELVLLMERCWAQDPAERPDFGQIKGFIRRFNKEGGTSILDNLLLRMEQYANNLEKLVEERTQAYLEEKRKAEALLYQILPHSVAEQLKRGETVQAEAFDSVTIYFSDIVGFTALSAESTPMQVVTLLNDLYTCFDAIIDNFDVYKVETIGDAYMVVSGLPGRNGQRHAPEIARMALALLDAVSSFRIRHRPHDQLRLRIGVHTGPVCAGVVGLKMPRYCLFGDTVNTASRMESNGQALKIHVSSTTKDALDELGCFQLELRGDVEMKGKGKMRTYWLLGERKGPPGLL
Experiment: In vitro hNPR2 activity assay (cGMP GloSensor reporter, HEK293)
Format: cell-based
Conditions: potency relative to CNP22 (0065)
How it was run: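 Potency is the EC50 from a four-parameter logistic fit, also expressed relative to the in-plate CNP22 control (×100), with at least two replicates. Compounds (ten concentrations, […], HSA-free diluent with 1% OVA, 0.01% Tween20) were incubated 30 min at 37 °C on HEK293 cells co-expressing hNPR2 and a GloSensor cGMP luciferase. Luminescence detected with Bright-Glo.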

| SMILES | hNPR2 0% HSA. [EC50% rel CNP] |
| --- | --- |
| CC[C@H](C)[C@@H]1NC(=O)[C@H](CCCNC(=N)N)NC(=O)[C@H](CC(=O)O)NC(=O)[C@H](CC(C)C)NC(=O)[C@@H]2CCCN2C(=O)[C@H](CC(C)C)NC(=O)CNC(=O)[C@H](Cc2ccccc2)NC(=O)[C@@H](NC(=O)CNC(=O)[C@H](CCC(N)=O)NC(=O)[C@H](CO)NC(=O)[C@H](CO)NC(=O)CNC(=O)[C@H](CCCCN)NC(=O)[C@H](CCCCN)NC(=O)[C@H](CCC(N)=O)NC(=O)[C@H](C)NC(=O)CNC(=O)[C@@H]2CCCN2C(=O)[C@H](C)NC(=O)[C@H](CCC(N)=O)NC(=O)CNC(=O)COCCOCCNC(=O)COCCOCCNC(=O)CC[C@H](NC(=O)CCCCCCCCCCCCCCCCC(=O)O)C(=O)O)CSSC[C@@H](C(=O)O)NC(=O)CNC(=O)[C@H](CC(C)C)NC(=O)CNC(=O)[C@H](CO)NC(=O)[C@H](CC(C)C)NC(=O)[C@H](CO)NC(=O)CNC1=O [compound 9384] ({C18 diacid-γGlu-AEEA-AEEA}-GQAPGAQKKGSSQGCFGLPLDRIGSLSGLGC-OH; disulfide 15-31; C-terminus assumed) | 53.7% |
| CC[C@H](C)[C@@H]1NC(=O)[C@H](CCCNC(=N)N)NC(=O)[C@H](CC(=O)O)NC(=O)[C@H](CC(C)C)NC(=O)[C@@H]2CCCN2C(=O)[C@H](CC(C)C)NC(=O)CNC(=O)[C@H](Cc2ccccc2)NC(=O)[C@@H](NC(=O)CNC(=O)[C@H](CCC(N)=O)NC(=O)[C@H](CO)NC(=O)[C@H](CC(C)C)NC(=O)CNC(=O)[C@H](CCCCN)NC(=O)[C@H](CCCCN)NC(=O)[C@H](CCC(N)=O)NC(=O)[C@H](C)NC(=O)CNC(=O)[C@H](CCCCN)NC(=O)[C@H](Cc2ccc(O)cc2)NC(=O)[C@H](CCCCN)NC(=O)[C@H](CCCNC(=N)N)NC(=O)[C@H](C)NC(=O)COCCOCCNC(=O)COCCOCCNC(=O)CC[C@H](NC(=O)CC[C@H](NC(=O)CC[C@H](NC(=O)CC[C@H](NC(=O)CC[C@H](NC(=O)CCCCCCCCCCCCCCCCC(=O)O)C(=O)O)C(=O)O)C(=O)O)C(=O)O)C(=O)O)CSSC[C@@H](C(=O)O)NC(=O)CNC(=O)[C@H](CC(C)C)NC(=O)CNC(=O)[C@H](CO)NC(=O)[C@H](CC(C)C)NC(=O)[C@H](CO)NC(=O)CNC1=O [compound 1453] ({C18 diacid-γGlu-γGlu-γGlu-γGlu-γGlu-AEEA-AEEA}-ARKYKGAQKKGLSQGCFGLPLDRIGSLSGLGC-OH; disulfide 16-32) | 33.5% |
| CC[C@H](C)[C@@H]1NC(=O)[C@H](CCCNC(=N)N)NC(=O)[C@H](CC(=O)O)NC(=O)[C@H](CC(C)C)NC(=O)[C@@H]2CCCN2C(=O)[C@H](CC(C)C)NC(=O)CNC(=O)[C@H](Cc2ccccc2)NC(=O)[C@@H](NC(=O)CNC(=O)[C@H](CO)NC(=O)[C@H](CO)NC(=O)[C@H](CC(C)C)NC(=O)CNC(=O)[C@H](CCCCN)NC(=O)[C@H](CCCCN)NC(=O)[C@H](CCC(N)=O)NC(=O)[C@H](C)NC(=O)CNC(=O)[C@H](CCCCN)NC(=O)[C@H](Cc2ccc(O)cc2)NC(=O)COCCOCCNC(=O)COCCOCCNC(=O)CC[C@H](NC(=O)CCCCCCCCCCCCCCCCC(=O)O)C(=O)O)CSSC[C@@H](C(=O)O)NC(=O)CNC(=O)[C@H](CC(C)C)NC(=O)CNC(=O)[C@H](CO)NC(=O)[C@H](CC(C)C)NC(=O)[C@H](CO)NC(=O)CNC1=O [compound 1233] ({C18 diacid-γGlu-AEEA-AEEA}-YKGAQKKGLSSGCFGLPLDRIGSLSGLGC-OH; disulfide 13-29) | 49.7% |
| CC[C@H](C)[C@@H]1NC(=O)[C@H](CCCNC(=N)N)NC(=O)[C@H](CC(=O)O)NC(=O)[C@H](CC(C)C)NC(=O)[C@@H]2CCCN2C(=O)[C@H](CC(C)C)NC(=O)CNC(=O)[C@H](Cc2ccccc2)NC(=O)[C@@H](NC(=O)CNC(=O)[C@H](CCC(N)=O)NC(=O)[C@H](CO)NC(=O)[C@H](CC(C)C)NC(=O)CNC(=O)[C@H](CCCCN)NC(=O)[C@H](CCCCN)NC(=O)[C@H](CCC(N)=O)NC(=O)[C@H](C)NC(=O)CNC(=O)[C@H](CCCCN)NC(=O)[C@H](Cc2ccc(O)cc2)NC(=O)[C@H](CCCCN)NC(=O)[C@H](Cc2c[nH]cn2)NC(=O)[C@H](C)NC(=O)[C@H](CCC(N)=O)NC(=O)[C@@H]2CCCN2C(=O)[C@H](Cc2c[nH]cn2)NC(=O)[C@H](CCC(=O)O)NC(=O)[C@H](CCC(N)=O)NC(=O)COCCOCCNC(=O)COCCOCCNC(=O)CC[C@H](NC(=O)CC[C@H](NC(=O)CC[C@H](NC(=O)CCCCCCCCCCCCCCCCC(=O)O)C(=O)O)C(=O)O)C(=O)O)CSSC[C@@H](C(=O)O)NC(=O)CNC(=O)[C@H](CC(C)C)NC(=O)CNC(=O)[C@H](CO)NC(=O)[C@H](CC(C)C)NC(=O)[C@H](CO)NC(=O)CNC1=O [compound 1382] ({C18 diacid-γGlu-γGlu-γGlu-AEEA-AEEA}-QEHPQAHKYKGAQKKGLSQGCFGLPLDRIGSLSGLGC-OH; disulfide 21-37) | 43.8% |
| CC[C@H](C)[C@@H]1NC(=O)[C@H](CCCNC(=N)N)NC(=O)[C@H](CC(=O)O)NC(=O)[C@H](CC(C)C)NC(=O)[C@@H]2CCCN2C(=O)[C@H](CC(C)C)NC(=O)CNC(=O)[C@H](Cc2ccccc2)NC(=O)[C@@H](NC(=O)CNC(=O)[C@H](CCC(N)=O)NC(=O)[C@H](CO)NC(=O)[C@H](CC(C)C)NC(=O)CNC(=O)[C@H](CCCCN)NC(=O)[C@H](CCCCN)NC(=O)[C@H](CCC(N)=O)NC(=O)[C@H](C)NC(=O)CNC(=O)[C@H](CCCCN)NC(=O)[C@H](Cc2ccc(O)cc2)NC(=O)[C@H](CCCCN)NC(=O)[C@H](CCCNC(=N)N)NC(=O)[C@H](C)NC(=O)[C@H](CCC(N)=O)NC(=O)[C@@H]2CCCN2C(=O)[C@H](Cc2c[nH]cn2)NC(=O)[C@H](CCC(=O)O)NC(=O)[C@H](CCC(N)=O)NC(=O)COCCOCCNC(=O)COCCOCCNC(=O)COCCOCCNC(=O)COCCOCCNC(=O)CC[C@H](NC(=O)CC[C@H](NC(=O)CC[C@H](NC(=O)CC[C@H](NC(=O)CC[C@H](NC(=O)CC[C@H](NC(=O)CCCCCCCCCCCCCCCCC(=O)O)C(=O)O)C(=O)O)C(=O)O)C(=O)O)C(=O)O)C(=O)O)CSSC[C@@H](C(=O)O)NC(=O)CNC(=O)[C@H](CC(C)C)NC(=O)CNC(=O)[C@H](CO)NC(=O)[C@H](CC(C)C)NC(=O)[C@H](CO)NC(=O)CNC1=O [compound 1404] ({C18 diacid-γGlu-γGlu-γGlu-γGlu-γGlu-γGlu-AEEA-AEEA-AEEA-AEEA}-QEHPQARKYKGAQKKGLSQGCFGLPLDRIGSLSGLGC-OH; disulfide 21-37) | 81.3% |
| CC[C@H](C)[C@@H]1NC(=O)[C@H](CCCNC(=N)N)NC(=O)[C@H](CC(=O)O)NC(=O)[C@H](CC(C)C)NC(=O)[C@@H]2CCCN2C(=O)[C@H](CC(C)C)NC(=O)CNC(=O)[C@H](Cc2ccccc2)NC(=O)[C@@H](NC(=O)CNC(=O)[C@H](CO)NC(=O)[C@H](CO)NC(=O)[C@H](CC(C)C)NC(=O)CNC(=O)[C@H](CCCCN)NC(=O)[C@H](CCCCN)NC(=O)[C@H](CCC(N)=O)NC(=O)[C@H](C)NC(=O)CNC(=O)[C@H](CCC(=O)O)NC(=O)[C@H](Cc2ccc(O)cc2)NC(=O)COCCOCCNC(=O)COCCOCCNC(=O)COCCOCCNC(=O)COCCOCCNC(=O)CC[C@H](NC(=O)CCCCCCCCCCCCCCCCC(=O)O)C(=O)O)CSSC[C@@H](C(=O)O)NC(=O)CNC(=O)[C@H](CC(C)C)NC(=O)CNC(=O)[C@H](CO)NC(=O)[C@H](CC(C)C)NC(=O)[C@H](CO)NC(=O)CNC1=O [compound 1392] ({C18 diacid-γGlu-AEEA-AEEA-AEEA-AEEA}-YEGAQKKGLSSGCFGLPLDRIGSLSGLGC-OH; disulfide 13-29) | 29.5% |
